Data as given in paper PMC4441592 (Neuron, 2015).
Peptide text beside a SMILES is read from it.

Assays:
[1] = tested on: VGAT-ires-Cre mice, VTA/SN^VGAT neurons; assay: Locomotor activity; format: in vivo; conditions: for locomotor activity vs vehicle: mice expressing both KORD and hM3Dq in VTA/SN^VGAT neurons, different testing sessions
[2] = tested on: AGRP-ires-cre mice, ARC^AgRP neurons with hM3Dq and KORD; assay: Feeding study with multiplexed KOR and hM3Dq DREADD; format: in vivo; conditions: hM3Dq and KORD in ARC^AgRP neurons; CNO 1mg/kg i.p.
KOR [3] = target: T1, KOR (Homo sapiens, UniProt P41145); assay: cell-based
KORD (D138N hKOR) = KORD (D138N hKOR) (Homo sapiens, UniProt P41145, D138N); assay: cell-based; conditions: for EC50: EC50(nM)
KOR [4] = target: T1, KOR; assay: [3H]-diprenorphine radioligand competition binding, WT KOR
KORD = KORD (Homo sapiens, UniProt P41145, D138N); assay: Radioligand competition binding, KORD
CNS molecular targets = assay: NIMH Psychoactive Drug Screening Program profiling; conditions: NIMH PDSP; except low KOR binding affinity
[5] = tested on: muscarinic receptor- based DREADDs (Gq, Gi and Gs DREADDs); assay: Activity at muscarinic receptor-based DREADDs; format: cell-based
mice [6] = conditions: mouse, in vivo
E297A mutant = E297A mutant (Homo sapiens, UniProt P41145, E297A); assay: Affinity and agonist potency at E297A KOR mutant; format: cell-based; conditions: E297A mutant alone
VTA/SN neurons = assay: Miniature IPSC recording in VTA/SN neurons; format: cell-based; conditions: naive mice; 100 nM
[7] = tested on: SIM1-Cre mice, PVH^SIM1 neurons; assay: Feeding study in SIM1-cre mice; format: in vivo; conditions: wild type control mice injected with cre-dependent KORD virus; 10 mg/kg s.c.
mice [8] = conditions: mouse, in vivo; remark: listed apart in the source
C57BL/6J mice = conditions: mouse, in vivo

Compound: C[N+]1([O-])CCN(C2=Nc3cc(Cl)ccc3Nc3ccccc32)CC1 [CNO, clozapine-N-oxide]
- locomotor activity, same session ([1]; dual DREADD mice, 3.0 mg/kg CNO): significant locomotor depression
- locomotor activity in control mice ([1]; mCherry in VTA/SN^VGAT neurons, 3.0 mg/kg i.p.): did not affect behavior
- locomotor activity vs vehicle ([1]; 3.0 mg/kg): decreased locomotor activity
- light cycle food intake [2]: 0.75 ± 0.03 g

Compound: CC[C@H](C)[C@H](NC(=O)[C@H](CCCN=C(N)N)NC(=O)[C@H](CCCN=C(N)N)NC(=O)[C@H](CC(C)C)NC(=O)[C@H](Cc1ccccc1)NC(=O)CNC(=O)CNC(=O)[C@@H](N)Cc1ccc(O)cc1)C(=O)N[C@@H](CCCN=C(N)N)C(=O)O [Dynorphin A(1-9)] (H-YGGFLRRIR-OH)
- EC50 (KOR [3]; EC50(nM)): 127 nM
- EC50 (KOR [3]; pEC50 ± SEM): 129 nM
- EC50 (KORD (D138N hKOR)): > 10000 nM

Compound: CC[C@H](C)[C@H](NC(=O)[C@H](CCCNC(=N)N)NC(=O)[C@H](CCCNC(=N)N)NC(=O)[C@H](CC(C)C)NC(=O)[C@H](Cc1ccccc1)NC(=O)CNC(=O)CNC(=O)[C@@H](N)Cc1ccc(O)cc1)C(=O)N[C@@H](CCCNC(=N)N)C(=O)N1CCC[C@H]1C(=O)N[C@@H](CCCCN)C(=O)N[C@@H](CC(C)C)C(=O)N[C@@H](CCCCN)C(=O)O [Dynorphin A(1-13)]
- EC50 (KOR [3]; EC50(nM)): 19 nM
- EC50 (KOR [3]; pEC50 ± SEM): 19.5 nM
- EC50 (KORD (D138N hKOR)): > 10000 nM
- Ki (KOR [4]): 3.16 nM
- Ki (KORD): 1620 nM

Compound: CSCC[C@H](NC(=O)[C@H](Cc1ccccc1)NC(=O)CNC(=O)CNC(=O)[C@@H](N)Cc1ccc(O)cc1)C(=O)N[C@@H](CCCNC(=N)N)C(=O)N[C@@H](CCCNC(=N)N)C(=O)N[C@H](C(N)=O)C(C)C [Metorphamide]
- Emax (KOR [3]): 97%
- EC50 (KOR [3]; EC50(nM)): 108 nM
- EC50 (KOR [3]; pEC50 ± SEM): 102 nM
- EC50 (KORD (D138N hKOR)): > 10000 nM

Compound: CSCC[C@H](NC(=O)[C@H](Cc1ccccc1)NC(=O)CNC(=O)CNC(=O)[C@@H](N)Cc1ccc(O)cc1)C(=O)N[C@@H](CCCNC(=N)N)C(=O)N[C@@H](CCCNC(=N)N)C(=O)N[C@H](C(=O)NCC(=O)N[C@@H](CCCNC(=N)N)C(=O)N1CCC[C@H]1C(=O)N[C@@H](CCC(=O)O)C(=O)N[C@@H](Cc1c[nH]c2ccccc12)C(=O)N[C@@H](Cc1c[nH]c2ccccc12)C(=O)N[C@@H](CCSC)C(=O)N[C@@H](CC(=O)O)C(=O)N[C@@H](Cc1ccc(O)cc1)C(=O)N[C@@H](CCC(N)=O)C(=O)N[C@@H](CCCNC(=N)N)C(=O)N[C@@H](Cc1ccc(O)cc1)C(=O)NCC(=O)NCC(=O)N[C@@H](Cc1ccccc1)C(=O)N[C@@H](CC(C)C)C(=O)O)C(C)C [Peptide E] (H-YGGFMRRVGRPEWWMDYQRYGGFL-OH)
- Emax (KOR [3]): 95%
- EC50 (KOR [3]; EC50(nM)): 65 nM
- EC50 (KOR [3]; pEC50 ± SEM): 66.1 nM
- EC50 (KORD (D138N hKOR)): > 10000 nM

Compound: COC(=O)[C@@H]1C[C@H](O)C(=O)[C@H]2[C@@]1(C)CC[C@H]1C(=O)O[C@H](c3ccoc3)C[C@]21C [Salvinorin B, salvinorin B]
- Emax (KOR [3]): 80%
- Emax (%) (KOR [3]): 100%
- Emax (KORD (D138N hKOR)): 94%
- Emax (%) (KORD (D138N hKOR)): 100%
- activity against a large number of CNS molecular targets (CNS molecular targets): failed to show any activity
- activity at muscarinic receptor-based DREADDs [5]: inactive
- hot plate test effect (analgesia) (mice [6]): did not alter performance relative to controls
- effect of E297A mutation on agonist potency (E297A mutant): no effect on SALB agonist potency
- mIPSCs (frequency and amplitude) (VTA/SN neurons): no effect
- locomotor activity vs vehicle ([1]; 10.0 mg/kg): enhanced locomotor activity
- feeding effect [7]: no feeding effects
- rotarod test effect (impairment of motor performance) (mice [8]): did not alter performance relative to controls
- brain stimulation reward thresholds (ICSS) (C57BL/6J mice): failed to significantly elevate thresholds

Compound: CC(C)C[C@H](NC(=O)[C@H](Cc1ccccc1)NC(=O)CNC(=O)CNC(=O)[C@@H](N)Cc1ccc(O)cc1)C(=O)N[C@@H](CCCNC(=N)N)C(=O)N[C@@H](CCCCN)C(=O)N[C@@H](Cc1ccc(O)cc1)C(=O)N1CCC[C@H]1C(=O)N[C@@H](CCCCN)C(=O)O [α-Neoendrophin] (H-YGGFLRKYPK-OH)
- Emax (KOR [3]): 95%
- EC50 (KOR [3]; EC50(nM)): 64 nM
- EC50 (KOR [3]; pEC50 ± SEM): 64.6 nM
- EC50 (KORD (D138N hKOR)): > 10000 nM

Compound: CC[C@H](C)[C@H](NC(=O)[C@H](C)NC(=O)[C@H](CC(N)=O)NC(=O)[C@H](CCCCN)NC(=O)[C@H](Cc1ccccc1)NC(=O)[C@H](CC(C)C)NC(=O)[C@@H](NC(=O)[C@@H](NC(=O)[C@H](CC(C)C)NC(=O)[C@@H]1CCCN1C(=O)[C@@H](NC(=O)[C@H](CCC(N)=O)NC(=O)[C@H](CO)NC(=O)[C@H](CCCCN)NC(=O)[C@H](CCC(=O)O)NC(=O)[C@H](CO)NC(=O)[C@@H](NC(=O)[C@H](CCSC)NC(=O)[C@H](Cc1ccccc1)NC(=O)CNC(=O)CNC(=O)[C@@H](N)Cc1ccc(O)cc1)[C@@H](C)O)[C@@H](C)O)C(C)C)[C@@H](C)O)C(=O)N[C@H](C(=O)N[C@@H](CCCCN)C(=O)N[C@@H](CC(N)=O)C(=O)N[C@@H](C)C(=O)N[C@@H](Cc1ccc(O)cc1)C(=O)O)[C@@H](C)CC [β-Endorphin (1-27)] (H-YGGFMTSEKSQTPLVTLFKNAIIKNAY-OH; N-terminus and C-terminus assumed)
- Emax (KOR [3]): 100%
- EC50 (KOR [3]; EC50(nM)): 700 nM
- EC50 (KOR [3]; pEC50 ± SEM): 708 nM
- EC50 (KORD (D138N hKOR)): > 10000 nM

Compound: CC[C@H](C)[C@H](NC(=O)[C@H](C)NC(=O)[C@H](CC(N)=O)NC(=O)[C@H](CCCCN)NC(=O)[C@H](Cc1ccccc1)NC(=O)[C@H](CC(C)C)NC(=O)[C@@H](NC(=O)[C@@H](NC(=O)[C@H](CC(C)C)NC(=O)[C@@H]1CCCN1C(=O)[C@@H](NC(=O)[C@H](CCC(N)=O)NC(=O)[C@H](CO)NC(=O)[C@H](CCCCN)NC(=O)[C@H](CCC(=O)O)NC(=O)[C@H](CO)NC(=O)[C@@H](NC(=O)[C@H](CCSC)NC(=O)[C@H](Cc1ccccc1)NC(=O)CNC(=O)CNC(=O)[C@@H](N)Cc1ccc(O)cc1)[C@@H](C)O)[C@@H](C)O)C(C)C)[C@@H](C)O)C(=O)N[C@H](C(=O)N[C@@H](CCCCN)C(=O)N[C@@H](CC(N)=O)C(=O)N[C@@H](C)C(=O)N[C@@H](Cc1ccc(O)cc1)C(=O)N[C@@H](CCCCN)C(=O)N[C@@H](CCCCN)C(=O)NCC(=O)N[C@@H](CCC(=O)O)C(=O)O)[C@@H](C)CC [β-Endorphin (1-31)]
- Emax (KOR [3]): 100%
- EC50 (KOR [3]; EC50(nM)): 706 nM
- EC50 (KOR [3]; pEC50 ± SEM): 708 nM
- EC50 (KORD (D138N hKOR)): > 10000 nM
